Laboratory results reported in ChEMBL document CHEMBL1150987, “Structure/activity relationships among photosensitizers related to pheophorbides and bacteriopheophorbides” (1992).

Experiments:
Format in all cases: functional
Mus musculus [1] = test: In vivo antitumor activity as percent tumor response at dose of 0.3 mg/kg, 3 hours post injection of SMT-F tumor in DBA/2 mice at day 30
Mus musculus [2] = test: In vivo antitumor activity as percent tumor response at dose of 0.3 mg/kg, 3 hours post injection of SMT-F tumor in DBA/2 mice at day 7
Mus musculus [3] = test: In vivo antitumor activity as percent tumor response at dose of 0.3 mg/kg, 3 hours post injection of SMT-F tumor in DBA/2 mice at day 1-2
Mus musculus [4] = test: In vivo antitumor activity as percent tumor response at dose of 5.0 mg/kg, 24 hours post injection of SMT-F tumor in DBA/2 mice at day 1-2
Mus musculus [5] = test: In vivo antitumor activity as percent tumor response at dose of 5.0 mg/kg, 24 hours post injection of SMT-F tumor in DBA/2 mice at day 30
Mus musculus [6] = test: In vivo antitumor activity as percent tumor response at dose of 5.0 mg/kg, 24 hours post injection of SMT-F tumor in DBA/2 mice at day 7
Mus musculus [7] = test: In vivo antitumor activity as percent tumor response at dose of 5.0 mg/kg, 3 hours post injection of SMT-F tumor in DBA/2 mice at day 1-2
Mus musculus [8] = test: In vivo antitumor activity as percent tumor response at dose of 5.0 mg/kg, 3 hours post injection of SMT-F tumor in DBA/2 mice at day 30
Mus musculus [9] = test: In vivo antitumor activity as percent tumor response at dose of 5.0 mg/kg, 3 hours post injection of SMT-F tumor in DBA/2 mice at day 7
Mus musculus [10] = test: In vivo antitumor activity as percent tumor response at dose of 0.25 mg/kg, 24 hours post injection of SMT-F tumor in DBA/2 mice at day 1-2
Mus musculus [11] = test: In vivo antitumor activity as percent tumor response at dose of 0.25 mg/kg, 24 hours post injection of SMT-F tumor in DBA/2 mice at day 30
Mus musculus [12] = test: In vivo antitumor activity as percent tumor response at dose of 0.25 mg/kg, 24 hours post injection of SMT-F tumor in DBA/2 mice at day 7
Mus musculus [13] = test: In vivo antitumor activity as percent tumor response at dose of 0.3 mg/kg, 24 hours post injection of SMT-F tumor in DBA/2 mice at day 1-2
Mus musculus [14] = test: In vivo antitumor activity as percent tumor response at dose of 0.3 mg/kg, 24 hours post injection of SMT-F tumor in DBA/2 mice at day 30
Mus musculus [15] = test: In vivo antitumor activity as percent tumor response at dose of 0.3 mg/kg, 24 hours post injection of SMT-F tumor in DBA/2 mice at day 7
Mus musculus [16] = test: In vivo antitumor activity as percent tumor response at dose of 2.5 mg/kg 3h between injection and light treatment in mice at day 7
Mus musculus [17] = test: In vivo antitumor activity as percent tumor response at dose of 2.5 mg/kg, 24 hours post injection of SMT-F tumor in DBA/2 mice at day 1-2
Mus musculus [18] = test: In vivo antitumor activity as percent tumor response at dose of 2.5 mg/kg, 24 hours post injection of SMT-F tumor in DBA/2 mice at day 30
Mus musculus [19] = test: In vivo antitumor activity as percent tumor response at dose of 2.5 mg/kg, 24 hours post injection of SMT-F tumor in DBA/2 mice at day 7
Mus musculus [20] = test: In vivo antitumor activity as percent tumor response at dose of 2.5 mg/kg, 3 hours post injection of SMT-F tumor in DBA/2 mice at day 1-2
Mus musculus [21] = test: In vivo antitumor activity as percent tumor response at dose of 2.5 mg/kg, 3 hours post injection of SMT-F tumor in DBA/2 mice at day 30
Mus musculus [22] = test: In vivo antitumor activity as percent tumor response at dose of 1.0 mg/kg, 24 hours post injection of SMT-F tumor in DBA/2 mice at day 1-2
Mus musculus [23] = test: In vivo antitumor activity as percent tumor response at dose of 1.0 mg/kg, 24 hours post injection of SMT-F tumor in DBA/2 mice at day 30
Mus musculus [24] = test: In vivo antitumor activity as percent tumor response at dose of 1.0 mg/kg, 24 hours post injection of SMT-F tumor in DBA/2 mice at day 7

Row | SMILES | Response (Mus musculus [1]) [%] | Response (Mus musculus [2]) [%] | Response (Mus musculus [3]) [%] | Response (Mus musculus [4]) [%] | Response (Mus musculus [5]) [%] | Response (Mus musculus [6]) [%] | Response (Mus musculus [13]) [%] | Response (Mus musculus [14]) [%] | Response (Mus musculus [15]) [%] | further results
1 | CCCCCCOC(C)c1c(C)c2cc3nc(c4c5nc(cc6[nH]c(cc1[nH]2)[C@@](C)(O)[C@]6(O)CC)C(C)=C5C(=O)C4)[C@@H](CCC(=O)OC)[C@@H]3C (stereo partly drawn) | 0 | 0 | 0 | – | – | – | – | – | – | –
2 | C=Cc1c(C)c2cc3nc(c4c5nc(cc6[nH]c(cc1[nH]2)c(C)c6CC)C(C)=C5C(=S)C4)[C@@H](CCC(=O)OC)[C@@H]3C | – | – | – | 0 | 0 | 0 | – | – | – | Response (Mus musculus [7]): 100%; Response (Mus musculus [8]): 80%; Response (Mus musculus [9]): 100%
3 | CCc1c(C)c2cc3[nH]c(cc4nc(c(CC(=O)OC)c5nc(cc1[nH]2)C(C)=C5C(=O)OC)[C@@H](CCC(=O)OC)[C@@H]4C)c(C)c3C=O | – | – | – | 0 | 0 | 0 | – | – | – | –
4 | CCCCCCOC(C)C1=C(C)c2cc3nc(c4c5[nH]c(cc6[nH]c(cc1n2)c(C)c6CC)c(C)c5C(=O)C4)[C@@H](CCC(=O)OC)[C@@H]3C (stereo partly drawn) | – | – | – | – | – | – | 100 | 50 | 100 | Response (Mus musculus [10]): 100%; Response (Mus musculus [11]): 35%; Response (Mus musculus [12]): 85%
5 | CCc1c(C)c2cc3nc(c4c5nc(cc6[nH]c(cc1[nH]2)[C@@](C)(O)[C@]6(O)CC)C(C)=C5C(=O)C4)[C@@H](CCC(=O)OC)[C@@H]3C | 0 | 0 | 0 | – | – | – | – | – | – | –
6 | CCc1c(C)c2cc3[nH]c(cc4nc(c5c6nc(cc1[nH]2)C(C)=C6C(=O)C5)[C@@H](CCC(=O)OC)[C@@H]4C)c(C)c3C=O | – | – | – | – | – | – | – | – | – | Response (Mus musculus [16]): 67%; Response (Mus musculus [17]): 0%; Response (Mus musculus [18]): 0%; Response (Mus musculus [19]): 0%; Response (Mus musculus [20]): 67%; Response (Mus musculus [21]): 0%
7 | CCc1c(C)c2cc3[nH]c(cc4nc(c5c6nc(cc1[nH]2)C(C)=C6C(=O)[C@@H]5C(=O)OC)[C@@H](CCC(=O)OC)[C@@H]4C)c(C)c3C=O | – | – | – | 80 | 0 | 60 | – | – | – | –
8 | CCCCCCOC(C)C1=C(C)c2cc3nc(c(CC(=O)OC)c4[nH]c(cc5[nH]c(cc1n2)c(C)c5CC)c(C)c4C(=O)OC)[C@@H](CCC(=O)OC)[C@@H]3C (stereo partly drawn) | – | – | – | – | – | – | 100 | 0 | 0 | Response (Mus musculus [22]): 100%; Response (Mus musculus [23]): 0%; Response (Mus musculus [24]): 75%
9 | CCCCCCOC(C)C1=C(C)c2cc3nc(c4c5[nH]c(cc6[nH]c(cc1n2)c(C)c6CC)c(C)c5C(=O)[C@@H]4C(=O)OC)[C@@H](CCC(=O)OC)[C@@H]3C (stereo partly drawn) | 20 | 100 | 100 | – | – | – | 100 | 0 | 90 | Response (Mus musculus [22]): 100%; Response (Mus musculus [23]): 50%; Response (Mus musculus [24]): 100%
10 | CCCCCCOCC1=C(C)c2cc3nc(c4c5[nH]c(cc6[nH]c(cc1n2)c(C)c6CC)c(C)c5C(=O)C4)[C@@H](CCC(=O)OC)[C@@H]3C | – | – | – | – | – | – | 100 | 0 | 33 | –
